Molecules are shown by their SMILES. Where only a bound is given, the exact number is not on record here.

For this assay, the target named is T1, Recombinant Human ENPP-2/Autotaxin (Homo sapiens, UniProt Q13822).
T1 construct: purchased R&D systems 5255-EN
The experiment in a line: LysoPLD activity measurement (autotaxin enzyme inhibition, choline release, TOOS reagent). Format: biochemical. The conditions noted are these: LysoPLD inhibitory activity; substrate 14:0 LysoPC; absorbance at 555 nm. The gist of the method: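 Autotaxin lysoPLD activity was read as choline released from 14:0 LysoPC, detected by TOOS reagent absorbance. Compound was preincubated 30 min, then substrate diluted to 300 μM was added and the reaction ran 90 minutes at 37° C. Controls contained 1% DMSO.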
`CC(C)(O)c1ccc(-n2c(=O)n(C3(c4cccc(C(=O)O)c4)CC3)c3ccc(Cl)cc32)cc1` [Example 246, 3-(1-(5-chloro-3-(4-(2-hydroxypropane-2-yl)phenyl)-2-oxo-2,3-dihydro-1H-benzo[d]imidazol-1-yl)cyclopropyl)benzoic acid]: the 50% inhibitory concentration (IC50) was under 0.01 µM. With `CC1(c2ccc(-n3c(=O)n(C4(c5cccc(C(=O)O)c5)CC4)c4ccc(Cl)cc43)cc2)COC1` [Example 247, 3-(1-(5-chloro-3-(4-(3-methyloxetan-3-yl)phenyl)-2-oxo-2,3-dihydro-1H-benzo[d]imidazol-1-yl)cyclopropyl)benzoic acid], the IC50 is under 0.01 µM.

Turning to `O=C(O)c1cccc(C2(n3c(=O)n(-c4ccc(C5CCOC5)cc4)c4cc(Cl)ccc43)CC2)c1` (stereo not drawn) [Example 248, 3-(1-(5-chloro-2-oxo-3-(4-(tetrahydrofuran-3-yl)phenyl)-2,3-dihydro-1H-benzo[d]imidazol-1-yl)cyclopropyl)benzoic acid], the half-inhibitory concentration (IC50) was under 0.01 µM.

Take `O=C(O)c1cc(F)cc(C2(n3c(=O)n(-c4ccc(C5CCOC5)cc4)c4cc(Cl)ccc43)CC2)c1` (stereo not drawn) [Example 249, 3-(1-(5-chloro-2-oxo-3-(4-(tetrahydrofuran-3-yl)phenyl)-2,3-dihydro-1H-benzo[d]imidazol-1-yl)cyclopropyl)-5-fluorobenzoic acid]: the concentration for half-maximal inhibition (IC50) was under 0.01 µM.

With `O=C(O)c1cccc(C2(n3c(=O)n(-c4ccc(C5CCOC5)cc4)c4cc(Cl)ccc43)CC2)c1F` (stereo not drawn) [Example 250, 3-(1-(5-chloro-2-oxo-3-(4-(tetrahydrofuran-3-yl)phenyl)-2,3-dihydro-1H-benzo[d]imidazol-1-yl)cyclopropyl)-2-fluorobenzoic acid], the IC50 is under 0.01 µM. The result for `CC1(C)OCc2cc(-n3c(=O)n(C4(c5cccc(C(=O)O)c5)CC4)c4ccc(Cl)cc43)ccc21` [Example 251, 3-(1-(5-chloro-3-(1,1-dimethyl-1,3-dihydroisobenzofuran-5-yl)-2-oxo-2,3-dihydro-1H-benzo[d]imidazol-1-yl)cyclopropyl)benzoic acid] reads under 0.01 µM; that for `CC1(C)OCc2cc(-n3c(=O)n(C4(c5cc(F)cc(C(=O)O)c5)CC4)c4ccc(Cl)cc43)ccc21` [Example 252, 3-(1-(5-chloro-3-(1,1-dimethyl-1,3-dihydroisobenzofuran-5-yl)-2-oxo-2,3-dihydro-1H-benzo[d]imidazol-1-yl)cyclopropyl)-5-fluorobenzoic acid], under 0.01 µM. With `CC1(C)OCc2cc(-n3c(=O)n(C4(c5cccc(C(=O)O)c5F)CC4)c4ccc(Cl)cc43)ccc21` [Example 253, 3-(1-(5-chloro-3-(1,1-dimethyl-1,3-dihydroisobenzofuran-5-yl)-2-oxo-2,3-dihydro-1H-benzo[d]imidazol-1-yl)cyclopropyl)-2-fluorobenzoic acid], the IC50 was 0.01 to 0.1 µM. In the case of `O=C1COc2cc(-n3c(=O)n(C4(c5cc(F)cc(C(=O)O)c5)CC4)c4ccc(Cl)cc43)ccc2N1` [Example 254, 3-(1-(5-chloro-2-oxo-3-(3-oxo-3,4-dihydro-2H-benzo[b][1,4]oxazin-7-yl)-2,3-dihydro-1H-benzo[d]imidazol-1-yl)cyclopropyl)-5-fluorobenzoic acid] it was under 0.01 µM. In the case of `CN1CCOc2cc(-n3c(=O)n(C4(c5cc(F)cc(C(=O)O)c5)CC4)c4ccc(Cl)cc43)ccc21` [Example 255, 3-(1-(5-chloro-3-(4-methyl-3,4-dihydro-2H-benzo[b][1,4]oxazin-7-yl)-2-oxo-2,3-dihydro-1H-benzo[d]imidazol-1-yl)cyclopropyl)-5-fluorobenzoic acid] it was under 0.01 µM; in that of `O=C(O)c1cccc(C2(n3c(=O)n(-c4ccc(C5(O)CCC5)cc4)c4cc(Cl)ccc43)CC2)c1` [Example 256, 3-(1-(5-chloro-3-(4-(1-hydroxycyclobutyl)phenyl)-2-oxo-2,3-dihydro-1H-benzo[d]imidazol-1-yl)cyclopropyl)benzoic acid], under 0.01 µM; in that of `O=C(O)c1cc(F)cc(C2(n3c(=O)n(-c4ccc(C5(O)CCC5)cc4)c4cc(Cl)ccc43)CC2)c1` [Example 257, 3-(1-(5-chloro-3-(4-(1-hydroxycyclobutyl)phenyl)-2-oxo-2,3-dihydro-1H-benzo[d]imidazol-1-yl)cyclopropyl)-5-fluorobenzoic acid], under 0.01 µM.

As for `O=C(O)c1cccc(C2(n3c(=O)n(-c4ccc(C5(O)COC5)cc4)c4cc(Cl)ccc43)CC2)c1` [Example 258, 3-(1-(5-chloro-3-(4-(3-hydroxyoxetan-3-yl)phenyl)-2-oxo-2,3-dihydro-1H-benzo[d]imidazol-1-yl)cyclopropyl)benzoic acid], the half-maximal inhibitory concentration (IC50) is under 0.01 µM. For the compound `O=C(O)c1cccc(Cn2c(=O)n(-c3ccc(C4CCN(C5COC5)CC4)cc3)c3cc(Cl)ccc32)c1` [Example 259, 3-((5-chloro-3-(4-(1-(oxetan-3-yl)piperidin-4-yl)phenyl)-2-oxo-2,3-dihydro-1H-benzo[d]imidazol-1-yl)methyl)benzoic acid], the IC50 lay in the range of 0.1 to 1 µM. In the case of `O=C(O)c1cccc(C2(n3c(=O)n(-c4ccc(C5CCN(C6COC6)CC5)cc4)c4cc(Cl)ccc43)CC2)c1` [Example 260, 3-(1-(5-chloro-3-(4-(1-(oxetan-3-yl)piperidin-4-yl)phenyl)-2-oxo-2,3-dihydro-1H-benzo[d]imidazol-1-yl)cyclopropyl)benzoic acid] it was under 0.01 µM; in that of `O=C(O)c1cccc(C2(n3c(=O)n(-c4ccc(C5CCOCC5)nc4)c4cc(Cl)ccc43)CC2)c1` [Example 261, 3-(1-(5-chloro-2-oxo-3-(6-(tetrahydro-2H-pyran-4-yl)pyridin-3-yl)-2,3-dihydro-1H-benzo[d]imidazol-1-yl)cyclopropyl)benzoic acid], 0.01 to 0.1 µM; in that of `O=C(O)c1cc(F)cc(C2(n3c(=O)n(-c4ccc(C5CCOCC5)nc4)c4cc(Cl)ccc43)CC2)c1` [Example 262, 3-(1-(5-chloro-2-oxo-3-(6-(tetrahydro-2H-pyran-4-yl)pyridin-3-yl)-2,3-dihydro-1H-benzo[d]imidazol-1-yl)cyclopropyl)-5-fluorobenzoic acid], 0.01 to 0.1 µM. Turning to `O=C(O)c1cccc(C2(n3c(=O)n(-c4ccc(-c5nnc(C6CC6)o5)cc4)c4cc(Cl)ccc43)CC2)c1` [Example 263, 3-(1-(5-chloro-3-(4-(5-cyclopropyl-1,3,4-oxadiazol-2-yl)phenyl)-2-oxo-2,3-dihydro-1H-benzo[d]imidazol-1-yl)cyclopropyl)benzoic acid], the IC50 is under 0.01 µM. For the compound `O=C(O)c1cccc(C2(n3c(=O)n(-c4ccc(-c5nnc(C6CCCCCC6)o5)cc4)c4cc(Cl)ccc43)CC2)c1` [Example 264, 3-(1-(5-chloro-3-(4-(5-cycloheptyl-1,3,4-oxadiazol-2-yl)phenyl)-2-oxo-2,3-dihydro-1H-benzo[d]imidazol-1-yl)cyclopropyl)benzoic acid], the IC50 lay in the range of 0.01 to 0.1 µM. Turning to `O=C(O)c1cccc(C2(n3c(=O)n(-c4ccc(-c5nnc(C6CCCCC6)o5)cc4)c4cc(Cl)ccc43)CC2)c1` [Example 265, 3-(1-(5-chloro-3-(4-(5-cyclohexyl-1,3,4-oxadiazol-2-yl)phenyl)-2-oxo-2,3-dihydro-1H-benzo[d]imidazol-1-yl)cyclopropyl)benzoic acid], the IC50 is 0.01 to 0.1 µM. In the case of `O=C(O)c1cccc(C2(n3c(=O)n(-c4ccc(-c5nnc(C6CCCC6)o5)cc4)c4cc(Cl)ccc43)CC2)c1` [Example 266, 3-(1-(5-chloro-3-(4-(5-cyclopentyl-1,3,4-oxadiazol-2-yl)phenyl)-2-oxo-2,3-dihydro-1H-benzo[d]imidazol-1-yl)cyclopropyl)benzoic acid] it was under 0.01 µM. The result for `O=C(O)c1cccc(C2(n3c(=O)n(-c4ccc(-c5nnc(C6CCOCC6)o5)cc4)c4cc(Cl)ccc43)CC2)c1` [Example 267, 3-(1-(5-chloro-2-oxo-3-(4-(5-(tetrahydro-2H-pyran-4-yl)-1,3,4-oxadiazol-2-yl)phenyl)-2,3-dihydro-1H-benzo[d]imidazol-1-yl)cyclopropyl)benzoic acid] reads under 0.01 µM; that for `O=C(O)c1cccc(C2(n3c(=O)n(-c4ccc(-c5nnc(C6CCOCC6)o5)cc4)c4cc(Cl)ccc43)CC2)c1F` [Example 268, 3-(1-(5-chloro-2-oxo-3-(4-(5-(tetrahydro-2H-pyran-4-yl)-1,3,4-oxadiazol-2-yl)phenyl)-2,3-dihydro-1H-benzo[d]imidazol-1-yl)cyclopropyl)-2-fluorobenzoic acid], under 0.01 µM.

For `CCCn1cc(-c2ccc(-n3c(=O)n(C4(c5cccc(C(=O)O)c5)CC4)c4ccc(Cl)cc43)cc2)cn1` [Example 269, 3-(1-(5-chloro-2-oxo-3-(4-(1-propyl-1H-pyrazol-4-yl)phenyl)-2,3-dihydro-1H-benzo[d]imidazol-1-yl)cyclopropyl)benzoic acid], the IC50 was under 0.01 µM.

For `CCCn1cc(-c2ccc(-n3c(=O)n(C4(c5cccc(C(=O)O)c5)CC4)c4ncc(Cl)cc43)cc2)cn1` [Example 270, 3-(1-(6-chloro-2-oxo-1-(4-(1-propyl-1H-pyrazol-4-yl)phenyl)-1,2-dihydro-3H-imidazo[4,5-b]pyridin-3-yl)cyclopropyl)benzoic acid], the concentration for half-maximal inhibition (IC50) is under 0.01 µM. `CN(C)c1ccc(-n2c(=O)n(C3(c4cc(F)cc(C(=O)O)c4)CC3)c3ncc(Cl)cc32)cc1` [Example 271, 3-(1-(6-chloro-1-(4-(dimethylamino)phenyl)-2-oxo-1,2-dihydro-3H-imidazo[4,5-b]pyridin-3-yl)cyclopropyl)-5-fluorobenzoic acid]: the IC50 is under 0.01 µM.

Consider `CN(C)C(=O)c1ccc(-n2c(=O)n(C3(c4cc(F)cc(C(=O)O)c4)CC3)c3ncc(Cl)cc32)cc1` [Example 272, 3-(1-(6-chloro-1-(4-(dimethylcarbamoyl)phenyl)-2-oxo-1,2-dihydro-3H-imidazo[4,5-b]pyridin-3-yl)cyclopropyl)-5-fluorobenzoic acid], for which the 50% inhibitory concentration (IC50) was under 0.01 µM.
